Results: ChEMBL document CHEMBL6074641, “Polypharmacological Drug Design Guided by Integrating Phenotypic and Restricted Fragment Docking Strategies” (J Med Chem, 2024)
Activity calls are given as the source filed them. The rule behind the calls is not given here.

How the values were obtained:
[1] = molecular target: T1, Receptor-interacting serine/threonine-protein kinase 1 (Homo sapiens, UniProt Q13546); test: (§1) Inhibition of recombinant RIPK1 (1 to 327 residues) (unknown origin) expressed in Escherichia coli BL21([…]) using MBP as substrate preincubated for 15 mins followed by substrate and ATP addition and measured after 90 mins by ADP-Glo luminescence […] assay
T1 sequence (Q13546 whole entry): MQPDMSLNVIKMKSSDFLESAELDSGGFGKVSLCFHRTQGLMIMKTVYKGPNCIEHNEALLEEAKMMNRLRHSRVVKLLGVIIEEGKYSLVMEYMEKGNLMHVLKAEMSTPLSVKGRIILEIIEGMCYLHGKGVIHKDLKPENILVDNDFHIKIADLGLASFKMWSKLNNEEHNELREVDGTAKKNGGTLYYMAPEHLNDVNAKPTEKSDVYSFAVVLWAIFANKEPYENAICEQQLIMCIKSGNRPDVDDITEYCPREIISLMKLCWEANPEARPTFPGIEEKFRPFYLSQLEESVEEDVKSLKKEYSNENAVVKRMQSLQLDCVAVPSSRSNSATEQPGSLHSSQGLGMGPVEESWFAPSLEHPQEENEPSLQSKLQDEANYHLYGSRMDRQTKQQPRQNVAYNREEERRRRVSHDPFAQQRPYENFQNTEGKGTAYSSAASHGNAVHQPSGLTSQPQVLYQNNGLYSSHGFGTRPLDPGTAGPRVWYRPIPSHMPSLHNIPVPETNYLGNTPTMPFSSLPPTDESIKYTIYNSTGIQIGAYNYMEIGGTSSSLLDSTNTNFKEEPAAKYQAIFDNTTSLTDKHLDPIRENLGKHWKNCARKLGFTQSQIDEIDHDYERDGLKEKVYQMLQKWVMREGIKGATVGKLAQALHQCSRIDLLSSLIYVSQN

[2] = molecular target: Mitogen-activated protein kinase kinase kinase kinase 4 (Homo sapiens, UniProt O95819); test: Inhibition of recombinant MAP4K4 (1 to 328 residues) (unknown origin) expressed in Escherichia coli BL21([…]) using MBP as substrate preincubated for 15 mins followed by substrate and ATP addition and measured after 90 mins by ADP-Glo luminescence […] assay
Chain of Mitogen-activated protein kinase kinase kinase kinase 4 (O95819 whole entry, the tested form may be a part): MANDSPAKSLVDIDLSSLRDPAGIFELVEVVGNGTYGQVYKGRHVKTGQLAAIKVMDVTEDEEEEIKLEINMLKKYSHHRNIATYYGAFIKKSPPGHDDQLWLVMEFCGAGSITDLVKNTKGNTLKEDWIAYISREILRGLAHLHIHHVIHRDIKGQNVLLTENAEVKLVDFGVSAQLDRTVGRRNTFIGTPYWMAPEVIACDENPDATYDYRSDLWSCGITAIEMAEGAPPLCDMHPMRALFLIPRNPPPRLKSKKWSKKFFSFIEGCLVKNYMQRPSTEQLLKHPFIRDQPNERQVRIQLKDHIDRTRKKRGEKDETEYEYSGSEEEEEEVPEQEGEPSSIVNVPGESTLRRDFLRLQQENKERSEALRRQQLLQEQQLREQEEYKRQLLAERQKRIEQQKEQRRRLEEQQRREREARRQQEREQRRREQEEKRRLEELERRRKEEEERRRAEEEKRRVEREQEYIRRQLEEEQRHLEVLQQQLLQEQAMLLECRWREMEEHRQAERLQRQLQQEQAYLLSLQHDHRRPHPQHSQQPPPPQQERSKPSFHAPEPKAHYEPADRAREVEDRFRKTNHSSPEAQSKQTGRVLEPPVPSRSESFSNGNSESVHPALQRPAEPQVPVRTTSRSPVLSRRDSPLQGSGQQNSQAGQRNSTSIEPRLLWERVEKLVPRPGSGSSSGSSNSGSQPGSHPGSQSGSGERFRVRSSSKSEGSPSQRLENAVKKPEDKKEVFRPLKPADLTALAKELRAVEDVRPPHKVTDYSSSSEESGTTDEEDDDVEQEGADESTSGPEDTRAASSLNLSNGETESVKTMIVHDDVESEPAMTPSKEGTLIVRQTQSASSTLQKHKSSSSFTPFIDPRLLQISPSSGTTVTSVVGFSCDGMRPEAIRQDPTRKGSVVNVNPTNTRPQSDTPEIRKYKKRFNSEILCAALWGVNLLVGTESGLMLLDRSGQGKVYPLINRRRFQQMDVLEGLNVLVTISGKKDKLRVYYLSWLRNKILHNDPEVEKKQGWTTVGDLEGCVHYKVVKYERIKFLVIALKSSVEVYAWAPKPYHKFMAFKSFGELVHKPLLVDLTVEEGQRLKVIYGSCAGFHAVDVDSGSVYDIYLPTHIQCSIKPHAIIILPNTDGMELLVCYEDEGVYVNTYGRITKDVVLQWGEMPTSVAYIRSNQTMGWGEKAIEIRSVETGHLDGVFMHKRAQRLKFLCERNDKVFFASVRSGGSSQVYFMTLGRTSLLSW

[3] = molecular target: ALK tyrosine kinase receptor (Homo sapiens, UniProt Q9UM73); test: Inhibition of recombinant ALK (1060 to end residues) (unknown origin) expressed in Escherichia coli […] using IGF1Rtide as substrate preincubated for 15 mins followed by substrate and ATP addition and measured after 90 mins by ADP-Glo luminescence […] assay
Chain of ALK tyrosine kinase receptor (Q9UM73 whole entry): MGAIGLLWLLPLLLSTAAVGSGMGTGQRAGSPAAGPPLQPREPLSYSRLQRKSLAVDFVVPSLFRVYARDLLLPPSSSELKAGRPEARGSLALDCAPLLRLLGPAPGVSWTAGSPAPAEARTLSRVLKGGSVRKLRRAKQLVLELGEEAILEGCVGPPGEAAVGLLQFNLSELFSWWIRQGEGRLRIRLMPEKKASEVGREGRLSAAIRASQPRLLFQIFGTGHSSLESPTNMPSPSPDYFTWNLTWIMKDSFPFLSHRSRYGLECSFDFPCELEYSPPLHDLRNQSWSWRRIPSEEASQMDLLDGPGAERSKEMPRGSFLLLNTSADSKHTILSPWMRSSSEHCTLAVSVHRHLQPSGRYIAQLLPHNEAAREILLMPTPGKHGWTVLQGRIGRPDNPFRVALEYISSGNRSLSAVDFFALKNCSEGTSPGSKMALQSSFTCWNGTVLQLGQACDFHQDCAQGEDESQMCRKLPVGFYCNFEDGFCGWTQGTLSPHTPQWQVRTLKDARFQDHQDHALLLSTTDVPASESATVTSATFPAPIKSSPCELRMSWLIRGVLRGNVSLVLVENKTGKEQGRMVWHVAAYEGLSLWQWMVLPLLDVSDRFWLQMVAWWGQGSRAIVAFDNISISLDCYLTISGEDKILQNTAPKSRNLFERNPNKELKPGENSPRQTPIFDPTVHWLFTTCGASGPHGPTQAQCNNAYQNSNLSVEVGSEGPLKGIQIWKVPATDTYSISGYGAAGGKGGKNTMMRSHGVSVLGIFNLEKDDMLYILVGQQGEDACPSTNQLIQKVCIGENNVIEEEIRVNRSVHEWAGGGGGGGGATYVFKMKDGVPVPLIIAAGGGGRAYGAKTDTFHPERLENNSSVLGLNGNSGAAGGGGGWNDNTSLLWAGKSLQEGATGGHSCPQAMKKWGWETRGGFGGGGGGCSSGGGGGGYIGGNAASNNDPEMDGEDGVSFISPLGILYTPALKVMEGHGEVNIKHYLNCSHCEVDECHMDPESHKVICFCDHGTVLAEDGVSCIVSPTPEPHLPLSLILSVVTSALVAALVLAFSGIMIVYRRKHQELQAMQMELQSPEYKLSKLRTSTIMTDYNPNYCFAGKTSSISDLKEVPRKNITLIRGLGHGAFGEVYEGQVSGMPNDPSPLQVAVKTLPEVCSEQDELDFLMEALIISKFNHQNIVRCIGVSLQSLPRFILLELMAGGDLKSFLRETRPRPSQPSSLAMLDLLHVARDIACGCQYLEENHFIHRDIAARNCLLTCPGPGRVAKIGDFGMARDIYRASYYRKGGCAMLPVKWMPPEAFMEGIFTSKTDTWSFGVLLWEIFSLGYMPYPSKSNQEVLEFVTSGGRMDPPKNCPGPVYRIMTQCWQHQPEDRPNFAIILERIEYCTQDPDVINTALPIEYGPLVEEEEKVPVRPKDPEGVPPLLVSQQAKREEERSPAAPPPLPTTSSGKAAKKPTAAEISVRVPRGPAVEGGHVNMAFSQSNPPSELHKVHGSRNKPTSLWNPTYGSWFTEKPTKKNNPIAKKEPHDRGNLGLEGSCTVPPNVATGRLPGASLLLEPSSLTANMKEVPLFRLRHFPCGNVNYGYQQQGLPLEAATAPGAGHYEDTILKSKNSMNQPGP

[4] = system: BV-2; test: cells; conditions: Mus musculus
[5] = molecular target: T2, Receptor-interacting serine/threonine-protein kinase 1 (Homo sapiens) (UniProt Q13546); test: as §1; conditions: time 105.0 min
T2 sequence (whole entry): T1 sequence (Q13546 whole entry)

[6] = system: BV-2; test: Anti-necroptosis activity in LPS/zVAD stimulated mouse BV-2 cells preincubated with LPS for 11 hrs followed by compound addition for 1 hr and exposed to zVAD-fmk for another 24 hrs by Cellcounting-Lite 2.0 luminescent cell viability assay; conditions: time 25.0 hrs
[7] = system: BV-2; test: Anti-necroptosis activity in LPS/zVAD stimulated mouse BV-2 cells at 10 uM preincubated with LPS for 11 hrs followed by compound addition for 1 hr and exposed to zVAD-fmk for another 24 hrs by Cellcounting-Lite 2.0 luminescent cell viability assay; type: functional, cell-based; conditions: time 25.0 hrs
[8] = system: BV-2; test: (§2) Synergistic anti-necroptosis activity in LPS/zVAD stimulated mouse BV-2 cells preincubated with LPS for 11 hrs followed by compound addition for 1 hr and exposed to zVAD-fmk for another 24 hrs in presence of Nec-1 by Cellcounting-Lite 2.0 luminescent cell viability assay; type: functional, cell-based; conditions: time 25.0 hrs
[9] = system: BV-2; test: (§3) Synergistic anti-necroptosis activity in LPS/zVAD stimulated mouse BV-2 cells preincubated with LPS for 11 hrs followed by compound addition for 1 hr and exposed to zVAD-fmk for another 24 hrs in presence of crizotinib by Cellcounting-Lite 2.0 luminescent cell viability assay; type: functional, cell-based; conditions: time 25.0 hrs
[10] = system: Mus musculus; test: Anti-alzheimer activity against 5 month old APP/PS1 transgenic mouse model assessed as decrease in anxiety level at 10 mg/kg, po administered 4 times per week for 4 weeks; type: functional, organism-based
[11] = system: Mus musculus; test: Anti-alzheimer activity against 5 month old APP/PS1 transgenic mouse model assessed as decrease in restlessness at 10 mg/kg, po administered 4 times per week for 4 weeks; type: functional, organism-based
[12] = system: Mus musculus; test: Anti-alzheimer activity against 8 month old 3xTg mouse model assessed as decrease in anxiety level at 10 mg/kg, po administered 4 times per week for 4 weeks; type: functional, organism-based
[13] = system: Mus musculus; test: Anti-alzheimer activity against 8 month old 3xTg mouse model assessed as decrease in restlessness at 10 mg/kg, po administered 4 times per week for 4 weeks; type: functional, organism-based
[14] = system: BV-2; test: as §3, with “cells at 100 nM” for “cells”, “of PF-06260933 and” for “of”; type: functional, cell-based; conditions: time 25.0 hrs
[15] = system: BV-2; test: as §2, with “cells at 100 nM” for “cells”, “PF-06260933 and entrectinib” for “Nec-1”; type: functional, cell-based; conditions: time 25.0 hrs
[16] = system: BV-2; test: Synergistic anti-necroptosis activity in LPS/zVAD stimulated mouse BV-2 cells at 100 nM preincubated with LPS for 11 hrs followed by compound addition for 1 hr and exposed to zVAD-fmk for another 24 hrs in presence of PF-06260933 and TAE684 by Cellcounting-Lite 2.0 luminescent cell viability assay; type: functional, cell-based; conditions: time 25.0 hrs
[17] = system: BV-2; test: Synergistic anti-necroptosis activity in LPS/zVAD stimulated mouse BV-2 cells at 100 nM preincubated with LPS for 11 hrs followed by compound addition for 1 hr and exposed to zVAD-fmk for another 24 hrs in presence of PF-06260933 and LDK378 by Cellcounting-Lite 2.0 luminescent cell viability assay; type: functional, cell-based; conditions: time 25.0 hrs
[18] = system: BV-2; test: Downregulation of p-RIPK1 expression in mouse BV-2 cells at 100 nM in presence of PF-06260933 and crizotinib by Western blotting analysis; type: functional, cell-based
[19] = system: BV-2; test: Downregulation of p-MLKL expression in mouse BV-2 cells at 100 nM in presence of PF-06260933 and crizotinib by Western blotting analysis; type: functional, cell-based
[20] = system: BV-2; test: Anti-necroptosis activity in LPS/zVAD stimulated mouse BV-2 cells assessed as inhibition of extranuclear p65 at 100 nM; type: functional, cell-based
[21] = system: BV-2; test: Anti-necroptosis activity in LPS/zVAD stimulated mouse BV-2 cells assessed as inhibition of p65 nuclear translocation at 100 nM; type: functional, cell-based
[22] = system: BV-2; test: Anti-necroptosis activity in LPS/zVAD stimulated mouse BV-2 cells assessed as inhibition of p65 activation at 100 nM in presence of PF-06260933 and crizotinib; type: functional; parameters: scale not given: the % may be the effect or the level left
[23] = system: BV-2; test: Anti-necroptosis activity in LPS/zVAD stimulated mouse BV-2 cells assessed as inhibition of p65 nuclear translocation at 100 nM in presence of PF-06260933 and crizotinib; type: functional; parameters: scale not given: the % may be the effect or the level left
[24] = system: BV-2; test: Anti-inflammatory activity against LPS/zVAD treated mouse BV-2 cells assessed as decrease in TNFalpha release at 100 nM in presence of PF-06260933 and crizotinib by ELISA; type: functional, cell-based
[25] = system: BV-2; test: Anti-inflammatory activity against LPS/zVAD treated mouse BV-2 cells assessed as decrease in IL-1beta release at 100 nM in presence of PF-06260933 and crizotinib by ELISA; type: functional, cell-based

| Compound | IC50 [1] | IC50 [2] | IC50 [3] | EC50 [4] | further results |
| --- | --- | --- | --- | --- | --- |
| Cc1cc(F)cc(Nc2ncc(Nc3ccc(C(F)(F)F)cc3)cc2C(N)=O)c1 | 420 nM | 1420 nM | 3780 nM | 210 nM | – |
| O=C(NCCc1ccccc1)C1CCN(C(=O)c2ccccc2F)CC1 | – | – | – | – | Inhibition activity call [5]: Active; Activity [6]: Active |
| Cc1cc(C)cc(Nc2cnc(Nc3cc(C)cc(F)c3)c(C(N)=O)c2)c1 | 430 nM | 930 nM | 210 nM | – | – |
| Cc1c(Cc2ccccc2)sc(NC(=O)c2ccccc2)c1C(N)=O | – | – | – | – | Inhibition activity call [5]: Active; Activity [6]: Active |
| Nc1ccc(-c2cnc(N)c(-c3ccc(Cl)cc3)c2)cn1 | – | – | – | – | Activity [7]: Active; Activity Similar To Nec-1; Activity [8]: inactive; Activity [9]: inactive |
| Cc1cc(F)cc(Nc2ncc(Nc3ccccc3)cc2C(N)=O)c1 | 380 nM | 760 nM | 1270 nM | 370 nM | – |
| Cc1cc(F)cc(Nc2ncc(Nc3ccc(C)c(C)c3)cc2C(N)=O)c1 | 1570 nM | 1380 nM | 1050 nM | > 3000 nM | – |
| Cc1cc(F)cc(Nc2ncc(Nc3ccc(C#N)cc3)cc2C(N)=O)c1 | 350 nM | 440 nM | 3020 nM | 240 nM | – |
| COc1ccc(Nc2cnc(Nc3cc(C)cc(F)c3)c(C(N)=O)c2)cc1 | 300 nM | 1810 nM | 1550 nM | 140 nM | – |
| Cc1cc(F)cc(Nc2ncc(Nc3ccc4c(c3)OCO4)cc2C(N)=O)c1 | 660 nM | 2230 nM | – | 160 nM | – |
| CCCc1ccc(Nc2cnc(Nc3cc(C)cc(F)c3)c(C(N)=O)c2)cc1 | 1480 nM | 12900 nM | 3310 nM | > 3000 nM | – |
| Cc1cc(F)cc(Nc2ncccc2C(N)=O)c1 | 240 nM | 660 nM | 610 nM | 480 nM | – |
| CN1C(=O)C(Cc2c[nH]c3ccccc23)NC1=S (centres undefined) [NECROSTATIN] | – | – | – | – | Activity [10]: Active; Activity [11]: Active; Activity [12]: Active; Activity [13]: Active; Activity [9]: inactive; Activity [14]: Active; Activity [15]: Active; Activity [16]: Active; Activity [17]: Active; Activity [18]: Active; Activity [19]: Active; Activity [20]: inactive; Activity [21]: Active; Activity [22]: 100%; Activity [23]: 100%; Activity [24]: Active; Activity [25]: Active |
| Cc1cc(F)cc(Nc2ncc(Nc3ccc(-c4ccco4)cc3)cc2C(N)=O)c1 | 360 nM | 650 nM | 1450 nM | 120 nM | – |
| O=C1c2cccc3cccc(c23)N1Cc1ccc(F)cc1 | – | – | – | – | Inhibition activity call [5]: Active; Activity [6]: Active |
